ChEMBL document CHEMBL3739403 (Bioorg Med Chem, 2016)

Experiments:
Prothrombin [1] = biological target: T1, Prothrombin (Homo sapiens, UniProt P00734); test: Inhibition of thrombin (unknown origin)
Prothrombin [2] = biological target: T1, Prothrombin; test: Inhibition of human thrombin preincubated for 10 mins using Ac-FVR-AMC as substrate by […] assay

SMILES	IC50 (Prothrombin [1])	IC50 (Prothrombin [2]; read-out: IC50)	IC50 (Prothrombin [2]; read-out: pIC50 (converted))
CCn1c(CNc2ccc(C(=N)N)cc2)nc2cc(C(=O)N(CCC(=O)O)c3ccccc3C(F)(F)F)ccc21	6.17 nM	–	–
CCCCn1c(CNc2ccc(C(=N)N)cc2F)nc2cc(C(=O)N(CCC(=O)O)c3ccc(F)c(Cl)c3)ccc21	36.3 nM	–	–
CC(C)n1c(CNc2ccc(C(=N)N)cc2)nc2cc(C(=O)N(CCC(=O)O)c3ccc(F)c(Cl)c3)ccc21	18.6 nM	–	–
Cn1c(CNc2ccc(C(=N)N)cc2)nc2cc(C(=O)N(CCC(=O)O)c3cccc(C(F)(F)F)c3)ccc21	12.3 nM	–	–
CCn1c(CNc2ccc(C(=N)N)cc2)nc2cc(C(=O)N(CCC(=O)O)c3cccc(C(F)(F)F)c3)ccc21	26.3 nM	–	–
CCCCn1c(CNc2ccc(C(=N)N)cc2)nc2cc(C(=O)N(CCC(=O)O)c3ccc(F)c(Cl)c3)ccc21	39.8 nM	–	–
N=C(N)c1ccc(NCc2nc3cc(C(=O)N(CCC(=O)O)c4ccc(F)c(Cl)c4)ccc3n2C2CC2)cc1	27.5 nM	–	–
CCn1c(CNc2ccc(C(=N)N)cc2)nc2cc(C(=O)N(CCC(=O)O)c3cc(F)cc(F)c3)ccc21	7.94 nM	–	–
Cn1c(CNc2ccc(C(=N)N)cc2F)nc2cc(C(=O)N(CCC(=O)O)c3ccc(F)c(Cl)c3)ccc21	11.5 nM	–	–
CCn1c(CNc2ccc(C(=N)N)cc2)nc2cc(C(=O)N(CCC(=O)O)c3ccccc3F)ccc21	3.55 nM	–	–
Cn1c(CNc2ccc(C(=N)N)cc2)nc2cc(C(=O)N(CCC(=O)O)c3cccc(F)c3)ccc21	5.37 nM	–	–
CCCn1c(CNc2ccc(C(=N)N)cc2)nc2cc(C(=O)N(CCC(=O)O)c3ccc(F)c(Cl)c3)ccc21	11 nM	–	–
Cc1ccnc(N(CCC(=O)O)C(=O)c2ccc3c(c2)nc(CNc2ccc(C(=N)N)cc2F)n3C)c1	24 nM	–	–
CCCCCn1c(CNc2ccc(C(=N)N)cc2)nc2cc(C(=O)N(CCC(=O)O)c3ccc(F)c(Cl)c3)ccc21	117 nM	–	–
CCn1c(CNc2ccc(C(=N)N)cc2)nc2cc(C(=O)N(CCC(=O)O)c3ccc(F)c(F)c3)ccc21	9.55 nM	–	–
Cn1c(CNc2ccc(C(=N)N)cc2)nc2cc(C(=O)N(CCC(=O)O)c3ccc(F)c(F)c3)ccc21	–	3.95 nM	3.98 nM

SMILES	IC50 (Prothrombin [1])	IC50 (Prothrombin [2]; read-out: IC50)	IC50 (Prothrombin [2]; read-out: pIC50 (converted))
CC(C)n1c(CNc2ccc(C(=N)N)cc2F)nc2cc(C(=O)N(CCC(=O)O)c3ccc(F)c(Cl)c3)ccc21	17.4 nM	–	–
N=C(N)c1ccc(NCc2nc3cc(C(=O)N(CCC(=O)O)c4ccc(F)c(Cl)c4)ccc3n2C2CC2)c(F)c1	26.9 nM	–	–
CCn1c(CNc2ccc(C(=N)N)cc2)nc2cc(C(=O)N(CCC(=O)O)c3ccc(F)cc3)ccc21	4.27 nM	–	–
Cn1c(CNc2ccc(C(=N)N)cc2)nc2cc(C(=O)N(CCC(=O)O)c3cc(F)cc(F)c3)ccc21	10.5 nM	–	–
CCn1c(CNc2ccc(C(=N)N)cc2F)nc2cc(C(=O)N(CCC(=O)O)c3cc(C)ccn3)ccc21	19.1 nM	–	–
CCCn1c(CNc2ccc(C(=N)N)cc2F)nc2cc(C(=O)N(CCC(=O)O)c3ccc(F)c(Cl)c3)ccc21	28.2 nM	–	–
Cn1c(CNc2ccc(C(=N)N)cc2)nc2cc(C(=O)N(CCC(=O)O)c3ccccc3C(F)(F)F)ccc21	–	4.96 nM	5.01 nM
CCn1c(CNc2ccc(C(=N)N)cc2)nc2cc(C(=O)N(CCC(=O)O)c3cccc(F)c3)ccc21	7.41 nM	–	–
CCn1c(CNc2ccc(C(=N)N)cc2)nc2cc(C(=O)N(CCC(=O)O)c3ccc(OC(F)(F)F)cc3)ccc21	117 nM	–	–
CCCCCn1c(CNc2ccc(C(=N)N)cc2F)nc2cc(C(=O)N(CCC(=O)O)c3ccc(F)c(Cl)c3)ccc21	174 nM	–	–
CCn1c(CNc2ccc(C(=N)N)cc2)nc2cc(C(=O)N(CCC(=O)O)c3ccc(F)c(Cl)c3)ccc21	8.91 nM	–	–
CCn1c(CNc2ccc(C(=N)N)cc2)nc2cc(C(=O)N(CCC(=O)O)c3ccc(C(F)(F)F)cc3)ccc21	200 nM	–	–
Cn1c(CNc2ccc(C(=N)N)cc2)nc2cc(C(=O)N(CCC(=O)O)c3ccc(F)c(Cl)c3)ccc21	8.32 nM	–	–
CCn1c(CNc2ccc(C(=N)N)cc2F)nc2cc(C(=O)N(CCC(=O)O)c3ccc(F)c(Cl)c3)ccc21	2.04 nM	–	–
CCCCCCOC(=O)NC(=N)c1ccc(NCc2nc3cc(C(=O)N(CCC(=O)OCC)c4ccccn4)ccc3n2C)cc1 [DABIGATRAN ETEXILATE]	–	2.61 nM	2.63 nM
